What is called EC50 is the concentration at which the effect is half-maximal.

Some results are limits rather than exact numbers.

The test system of this assay is genotype A, "Long" strain RSV. Put plainly: RSV-A in vitro cytoprotection assay in HEp-2 cells (ATPlite readout of cell viability). The format is cell-based, Human respiratory syncytial virus. Conditions: human respiratory syncytial virus, HEp-2, HEp-2 cells, genotype A “Long” strain RSV, cytoprotection; read-out: Human RSV-A (“Long” strain) EC50. The method in brief: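 Cytoprotection measured as ATP-based luminescence (ATPlite) after 4-day incubation of RSV Long-infected HEp-2 cells (8,000/well, 10% FBS DMEM) with 2-fold serial compound dilutions in duplicate. Identically treated virus-free plate gives cytotoxicity; EC50 calculated from viability.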
On the technique in general: Cellular ATP, detected with luciferase, serves as a proxy for viable cell number.
Take `Cc1cccc(F)c1NC(=O)c1cc2c(s1)-c1ccccc1N(C(=O)c1cccc(N3CC4CCC(C4)C3)n1)CC2` [Example 443]: the EC50 was more than 0.8 µM.

Regarding `Cc1cccc(F)c1NC(=O)c1cc2c(s1)-c1ccccc1N(C(=O)c1cccc(N3CCCC(C)(O)CC3)n1)CC2` (stereo not shown) [Example 444], the EC50 was less than 0.4 µM.

In the case of `Cc1cccc(F)c1NC(=O)c1cc2c(s1)-c1ccccc1N(C(=O)c1cccc(N3CCCCC(F)(F)C3)n1)CC2` [Example 445], the EC50 was less than 0.4 µM.

As to `Cc1cccc(F)c1NC(=O)c1cc2c(s1)-c1ccccc1N(C(=O)c1cccc(N3CCNS(=O)(=O)CC3)n1)CC2` [Example 446], the EC50 was less than 0.4 µM.

For `Cc1cccc(F)c1NC(=O)c1cc2c(s1)-c1ccccc1N(C(=O)c1cccc(N3CCN(C)S(=O)(=O)CC3)n1)CC2` [Example 447], the EC50 was less than 0.4 µM.

Turning to `Cc1cccc(F)c1NC(=O)c1cc2c(s1)-c1ccccc1N(C(=O)c1cccc(N3CCN(C4CC4)S(=O)(=O)CC3)n1)CC2` [Example 448], the EC50 was less than 0.4 µM.

For `Cc1cccc(F)c1NC(=O)c1cc2c(s1)-c1ccccc1N(C(=O)c1cccc(N3C[C@@H]4CC(F)(F)C[C@@H]4C3)n1)CC2` [Example 449], the EC50 is more than 0.8 µM.

In the case of `Cc1cccc(F)c1NC(=O)c1cc2c(s1)-c1ccccc1N(C(=O)c1cccc(-n3c(=O)[nH]c4ccccc43)n1)CC2` [Example 450], the EC50 was less than 0.4 µM.

Regarding `Cc1cccc(F)c1NC(=O)c1cc2c(s1)-c1ccccc1N(C(=O)c1cccc(N3C(=O)Cc4ccccc43)n1)CC2` [Example 451], the EC50 is more than 0.8 µM.

As for `Cc1cccc(F)c1NC(=O)c1cc2c(s1)-c1ccccc1N(C(=O)c1cccc(NC3CCOCC3)n1)CC2` [Example 453], the EC50 is less than 0.4 µM.

On to `Cc1cccc(F)c1NC(=O)c1cc2c(s1)-c1ccccc1N(C(=O)c1cccc(NC3CCS(=O)(=O)CC3)n1)CC2` [Example 454], for which the EC50 is more than 0.8 µM.

With `Cc1cccc(F)c1NC(=O)c1cc2c(s1)-c1ccccc1N(C(=O)c1cccc(N(C)C3CCS(=O)(=O)CC3)n1)CC2` [Example 455], the EC50 is more than 0.8 µM.

On to `Cc1cccc(F)c1NC(=O)c1cc2c(s1)-c1ccccc1N(C(=O)c1cccc(N[C@@H]3CCOC3)n1)CC2` [Example 456], for which the EC50 was less than 0.4 µM.

For `Cc1cccc(F)c1NC(=O)c1cc2c(s1)-c1ccccc1N(C(=O)c1cccc(N[C@H]3CCOC3)n1)CC2` [Example 457], the EC50 was less than 0.4 µM.

Regarding `Cc1cccc(F)c1NC(=O)c1cc2c(s1)-c1ccccc1N(C(=O)c1cccc(NC[C@@H]3CCCO3)n1)CC2` [Example 459], the EC50 was less than 0.4 µM.

`Cc1cccc(F)c1NC(=O)c1cc2c(s1)-c1ccccc1N(C(=O)c1cccc(NC[C@H]3CCCO3)n1)CC2` [Example 460]: the EC50 was less than 0.4 µM.

For the molecule `Cc1cccc(F)c1NC(=O)c1cc2c(s1)-c1ccccc1N(C(=O)c1cccc(N(C)CC3CCCO3)n1)CC2` (stereo not shown) [Example 461], the EC50 was less than 0.4 µM.

Regarding `Cc1cccc(F)c1NC(=O)c1cc2c(s1)-c1ccccc1N(C(=O)c1cccc(NCC3CCCS3(=O)=O)n1)CC2` (stereo not shown) [Example 462], the EC50 is less than 0.4 µM.

For `Cc1cccc(F)c1NC(=O)c1cc2c(s1)-c1ccccc1N(C(=O)c1cccc(N(CCS(C)(=O)=O)C3CC3)n1)CC2` [Example 463], the EC50 lay in the range of 0.4 to 0.8 µM.

Take `Cc1cccc(F)c1NC(=O)c1cc2c(s1)-c1ccccc1N(C(=O)c1cccc(NC(C)CS(C)(=O)=O)n1)CC2` (stereo not shown) [Example 464]: the EC50 is more than 0.8 µM.

Take `Cc1cccc(F)c1NC(=O)c1cc2c(s1)-c1ccccc1N(C(=O)c1cccc(NCC(C)(C)S(C)(=O)=O)n1)CC2` [Example 465]: the EC50 fell in the range of 0.4 to 0.8 µM.

`Cc1cccc(F)c1NC(=O)c1cc2c(s1)-c1ccccc1N(C(=O)c1cccc(NCC3(S(C)(=O)=O)CC3)n1)CC2` [Example 466]: the EC50 was less than 0.4 µM.

Consider `Cc1cccc(F)c1NC(=O)c1cc2c(s1)-c1ccccc1N(C(=O)c1cccc(NCC3(CS(C)(=O)=O)CC3)n1)CC2` [Example 467], for which the EC50 was in the range of 0.4 to 0.8 µM.

Turning to `COC(C)(C)CN(C)c1cccc(C(=O)N2CCc3cc(C(=O)Nc4c(C)cccc4F)sc3-c3ccccc32)n1` [Example 470], the EC50 is less than 0.4 µM.

For `COCCN(c1cccc(C(=O)N2CCc3cc(C(=O)Nc4c(C)cccc4F)sc3-c3ccccc32)n1)C1CC1` [Example 471], the EC50 is less than 0.4 µM.

As to `Cc1cccc(F)c1NC(=O)c1cc2c(s1)-c1ccccc1N(C(=O)c1cccc(N3CC4(CCS4(=O)=O)C3)n1)CC2` [Example 472], the EC50 was more than 0.8 µM.

Regarding `Cc1cccc(F)c1NC(=O)c1cc2c(s1)-c1ccccc1N(C(=O)c1cccc(N3CCC[C@@H]3c3ccccc3)n1)CC2` [Example 473], the EC50 was less than 0.4 µM.

Turning to `Cc1cccc(F)c1NC(=O)c1cc2c(s1)-c1ccccc1N(C(=O)c1cccc(N3CCC[C@@H]3C#N)n1)CC2` [Example 474], the EC50 was less than 0.4 µM.

For the molecule `Cc1cccc(F)c1NC(=O)c1cc2c(s1)-c1ccccc1N(C(=O)c1cccc(N3C(=O)OC[C@@H]3C(C)C)n1)CC2` [Example 475], the EC50 was less than 0.4 µM.

With `Cc1cccc(F)c1NC(=O)c1cc2c(s1)-c1ccccc1N(C(=O)c1cccc(NC3CS(=O)(=O)c4ccccc43)n1)CC2` (stereo not shown) [Example 476], the EC50 is less than 0.4 µM.

For the molecule `Cc1cccc(F)c1NC(=O)c1cc2c(s1)-c1ccccc1N(C(=O)c1cccc(N[C@H]3CCCNC3=O)n1)CC2` [Example 477], the EC50 was more than 0.8 µM.

In the case of `Cc1cccc(F)c1NC(=O)c1cc2c(s1)-c1ccccc1N(C(=O)c1cccc(N3CCC[C@H](N)C3=O)n1)CC2` [Example 478], the EC50 is more than 0.8 µM.

Regarding `Cc1cccc(F)c1NC(=O)c1cc2c(s1)-c1ccccc1N(C(=O)c1cccc(N3CCC[C@@H]3C)n1)CC2` [Example 479], the EC50 was less than 0.4 µM.

Regarding `Cc1cccc(F)c1NC(=O)c1cc2c(s1)-c1ccccc1N(C(=O)c1cccc(N3C[C@H](O)C[C@@H]3C)n1)CC2` [Example 480], the EC50 is less than 0.4 µM.

Consider `Cc1cccc(F)c1NC(=O)c1cc2c(s1)-c1ccccc1N(C(=O)c1cccc(N(C[C@H]3CCCO3)C3CCC3)n1)CC2` [Example 481], for which the EC50 is less than 0.4 µM.

With `Cc1cccc(F)c1NC(=O)c1cc2c(s1)-c1ccccc1N(C(=O)c1cccc(N3CCC[C@@H]3C(C)C)n1)CC2` [Example 482], the EC50 is more than 0.8 µM.

Turning to `Cc1cccc(F)c1NC(=O)c1cc2c(s1)-c1ccccc1N(C(=O)c1cccc(N3CCC[C@H]3C(C)C)n1)CC2` [Example 483], the EC50 was less than 0.4 µM.

For `Cc1cccc(F)c1NC(=O)c1cc2c(s1)-c1ccccc1N(C(=O)c1cccc(N3CCC[C@@H]3c3ccccn3)n1)CC2` [Example 484], the EC50 was less than 0.4 µM.

Take `Cc1cccc(F)c1NC(=O)c1cc2c(s1)-c1ccccc1N(C(=O)c1cccc(N3CCC[C@H]3c3ccccn3)n1)CC2` [Example 485]: the EC50 is more than 0.8 µM.

As to `Cc1cccc(F)c1NC(=O)c1cc2c(s1)-c1ccccc1N(C(=O)c1cccc(N3CCC[C@@H]3Cc3ccccc3)n1)CC2` [Example 486], the EC50 is more than 0.8 µM.

Consider `Cc1cccc(F)c1NC(=O)c1cc2c(s1)-c1ccccc1N(C(=O)c1cccc(N3CCC[C@H]3Cc3ccccc3)n1)CC2` [Example 487], for which the EC50 was in the range of 0.4 to 0.8 µM.

On to `Cc1cccc(F)c1NC(=O)c1cc2c(s1)-c1ccc(F)cc1N(C(=O)c1cccc(N3CCOc4ccccc4C3)n1)CC2` [Example 488], for which the EC50 is less than 0.4 µM.

As to `Cc1cccc(F)c1NC(=O)c1cc2c(s1)-c1c(F)cccc1N(C(=O)c1cccc(N3CCOc4ccccc4C3)n1)CC2` [Example 489], the EC50 was less than 0.4 µM.

With `COC[C@H]1CCCN1c1cccc(C(=O)N2CCc3cc(C(=O)Nc4c(C)cccc4F)sc3-c3ccc(F)cc32)n1` [Example 490], the EC50 was less than 0.4 µM.

Consider `Cc1cccc(F)c1NC(=O)c1cc2c(s1)-c1ccc(F)cc1N(C(=O)c1cccc(N(C)C[C@H]3CCCO3)n1)CC2` [Example 491], for which the EC50 is less than 0.4 µM.

Consider `Cc1cccc(F)c1NC(=O)c1cc2c(s1)-c1ccc(F)cc1N(C(=O)c1cccc(N3C(=O)CC[C@@H]3CN)n1)CC2` [Example 492], for which the EC50 was more than 0.8 µM.

Take `Cc1cccc(F)c1NC(=O)c1cc2c(s1)-c1ccc(F)cc1N(C(=O)c1cccc(N3C[C@@H](O)C[C@@H]3C)n1)CC2` [Example 493]: the EC50 was less than 0.4 µM.

As for `CCS(=O)(=O)CCNc1cccc(C(=O)N2CCc3cc(C(=O)Nc4c(C)cccc4F)sc3-c3ccccc32)n1` [Example 494], the EC50 was less than 0.4 µM.

For the molecule `Cc1cccc(F)c1NC(=O)c1cc2c(s1)-c1ccccc1N(C(=O)c1cccc(N3C[C@@H](O)C[C@@H]3C)n1)CC2` [Example 495], the EC50 was less than 0.4 µM.

As to `Cc1noc([C@H]2C[C@@H](O)CN2c2cccc(C(=O)N3CCc4cc(C(=O)Nc5c(C)cccc5F)sc4-c4ccccc43)n2)n1` [Example 496], the EC50 was more than 0.8 µM.

For `Cc1noc([C@H]2C[C@H](O)CN2c2cccc(C(=O)N3CCc4cc(C(=O)Nc5c(C)cccc5F)sc4-c4ccccc43)n2)n1` [Example 497], the EC50 is more than 0.8 µM.

Consider `COC[C@H]1CCCN1c1cccc(C(=O)N2CCc3cc(C(=O)Nc4c(C)cccc4F)sc3-c3ccc(Br)cc32)n1` [Example 498], for which the EC50 was less than 0.4 µM.

With `COC[C@H]1CCCN1c1cccc(C(=O)N2CCc3cc(C(=O)Nc4c(C)cccc4F)sc3-c3ccc(C)cc32)n1` [Example 499], the EC50 is less than 0.4 µM.

With `COC[C@H]1CCCN1c1cccc(C(=O)N2CCc3cc(C(=O)Nc4c(C)cccc4F)sc3-c3ccc(C4CC4)cc32)n1` [Example 500], the concentration for a half-maximal effect (EC50) was more than 0.8 µM.

Regarding `COC[C@@H](Nc1cccc(C(=O)N2CCc3cc(C(=O)Nc4c(C)cccc4F)sc3-c3ccccc32)n1)c1ccccc1` [Example 501], the EC50 was more than 0.8 µM.

Regarding `Cc1cccc(F)c1NC(=O)c1cc2c(s1)-c1ccccc1N(C(=O)c1cccc(N[C@H](CO)c3ccccc3)n1)CC2` [Example 502], the EC50 was less than 0.4 µM.

For the molecule `Cc1cccc(F)c1NC(=O)c1cc2c(s1)-c1cccc(F)c1N(C(=O)c1cccc(N3CCCOCC3)n1)CC2` [Example 503], the concentration for a half-maximal effect (EC50) was less than 0.4 µM.

Regarding `Cc1cccc(F)c1NC(=O)c1cc2c(s1)-c1cccc(F)c1N(C(=O)c1cccc(N3CCOc4ccccc4C3)n1)CC2` [Example 504], the EC50 was more than 0.8 µM.

The values are drawn from patent publication US10759816B2, “Heterocyclic compounds as RSV inhibitors” (Enanta Pharmaceuticals, Inc., priority 2016, dated 2020).
